US11395835B2, “Use of common gamma chain cytokines for the visualization, isolation and genetic modification of memory T lymphocytes” (OSPEDALE SAN RAFFAELE S.R.L., priority 2005, dated 2022)

Legend:
[1] = system: CD4+ T cells from tumor-draining LN of TS/A-LACK tumor-bearing 16.2β mice; assay: IL-7-driven accumulation of fast-proliferating memory CD4+ T cells with inhibitors; assay type: cell-based; settings: IL-7-driven cultures, 7 days
Text: FIG. 11. Intermediate memory CD4^+ T cells accumulate in the presence of IL-7 in a cell-density dependent, CsA-sensitive manner. Cells derived from the axillary, brachial and inguinal LN of naïve (A, B) and TS/A-LACK tumor-bearing (C-E) 16.20 mice were labeled with CFSE and respectively cultured for 7 days in plain medium, in the presence of LACK peptide (Ag) (A, B) or IL-7 (C-E) in the absence (nil) or in the presence of the indicated inhibitors. At the end of the culture the cells were stimulated for 5 h with L/28 aAPCs, and intracellular cytokine release was determined. A-D) Histograms show the CFSE dilution profile of equivalent numbers of (7×10^4) CD4^+ T cells. In A and C the thin lines reflect the CFSE profile of CD4+ T cells cultured in plain medium, while the thick lines depict the CFSE profile of CD4+ T cells cultured in Ag or IL-7, respectively. […]
(§1) 5 μm polystyrene sulfate latex beads (Interfacial Dynamics) were coated with I-A^d/LACK dimers (20 μg/ml) and anti-CD28 mAb (37.51; 2 μg/ml) (LACK aAPC) or with anti-CD28 mAb only (control aAPC). Coating of the proteins was monitored by flow cytometry analysis. […] The total number of Ag-specific IL-2^+/IFN-γ^+ T cells was determined by multiplying the percentage by the total number of Trypan Blue-negative LN cells.

[2] = system: naïve CD4+ T cells of 16.2β mice stimulated with LACK-pulsed APC; assay: Ag-driven proliferation of naive T cells with inhibitors (CFSE); assay type: cell-based; settings: 7 days
Text: FIG. 11. Intermediate memory CD4^+ T cells accumulate in the presence of IL-7 in a cell-density dependent, CsA-sensitive manner. Cells derived from the axillary, brachial and inguinal LN of naïve (A, B) and TS/A-LACK tumor-bearing (C-E) 16.20 mice were labeled with CFSE and respectively cultured for 7 days in plain medium, in the presence of LACK peptide (Ag) (A, B) or IL-7 (C-E) in the absence (nil) or in the presence of the indicated inhibitors. At the end of the culture the cells were stimulated for 5 h with L/28 aAPCs, and intracellular cytokine release was determined. A-D) Histograms show the CFSE dilution profile of equivalent numbers of (7×10^4) CD4^+ T cells. In A and C the thin lines reflect the CFSE profile of CD4+ T cells cultured in plain medium, while the thick lines depict the CFSE profile of CD4+ T cells cultured in Ag or IL-7, respectively. In B and D, thin line: cells cultured in the absence of the inhibitor, thick line: cells cultured in the presence of the inhibitor. E) Dot plots are shown after gating on viable CD4^+ T cells. Percentages indicate the frequency of LACK-specific cytokine secreting cells.
(§2) Twenty days after tumor cell injection mice were sacrificed and the axillary, brachial and inguinal peripheral lymph nodes (LN) draining and distal (non draining LN) to the site of tumor growth were recovered. […]

[3] = system: CD4+ T cells from TS/A-LACK tumor draining LN; assay: TO-PRO-3 viability of CFSE-labeled LN cultures maintained in cytokines; assay type: cell-based, mice; settings: total CD4+ cells, after a week in culture with the cytokine alone
Text: (§3) FIG. 5. IL-7 and IL-2 favor T cell survival and the optimal expression of Bcl-2. Cells from TS/A-LACK tumor draining LN were labeled with the CFSE vital dye and cultured in the absence (−) or in the presence of IL-7, IL-2, IL-15 and IL-6 alone. After 7 days, cells were recovered and stained with anti-CD4 mAb and TO-PRO-3 (A) and with anti-Bcl-2 mAb (B, C). A) representative dot plots of total CD4^+ cells are shown. The frequencies of total CD4^+ TOPRO-3^+ (brackets) and of CFSE dim, TO-PRO-3″ cells (bold) are reported. B-C) events are shown after physical gating on viable CD4^+ T lymphocytes. C) thin line: isotype control; thin lines-shaded profile: anti-Bcl-2 Ab, medium cultured cells; thick lines: anti-Bcl-2 Ab, cytokine-cultured cells. The experiment is representative of 2 independent determinations.
as §2, with “recovered. In the experiments of dendritic cell (DC) vaccination, mice were sacrificed fourteen days after DC administration and the axillary, brachial and inguinal LN were surgically excised.” for “recovered.”

[4] = system: CD4+ T cells from TS/A-LACK tumor draining LN; assay: Bcl-2 expression in CFSE-labeled LN cultures maintained in cytokines; assay type: cell-based, mice; settings: 7 days culture with the cytokine alone
Text: as §3
FIG. 6. Phenotype and subset representation of lymphocytes maintained in IL-7 and IL-2. CFSE-labeled TS/A-LACK-tumor-draining LN cultures were maintained for a week in the presence of IL-7 or IL-2. Thereafter the cells were stained with anti CD4, CD44, CD25, CD127, and CD132 mAbs. A) representative dot plots report the expression levels of CD44, CD62L, CD25, CD127, and CD132 of viable CD4+. B) overlay of CD4^+, CFSE dim cells derived from IL-7 (thin lines) and IL-2 (thick lines) cultures in the absence of Ag-stimulation are shown. […]

[5] = system: LACK-specific CD4+ T cells from LN of TS/A-LACK tumor-bearing BALB/c mice; assay: Ag-free short-term culture: I-Ad/LACK multimer staining, LACK-specific intracellular cytokine release, CFSE dilution; assay type: cell-based; settings: CFSE-labeled LN cells, 7 days, versus nil cultures
Procedure: Twenty days after tumor cell injection mice were sacrificed and the axillary, brachial and inguinal peripheral lymph nodes (LN) draining and distal (non draining LN) to the site of tumor growth were recovered. In the experiments of dendritic cell (DC) vaccination, mice were sacrificed fourteen days after DC administration and the axillary, brachial and inguinal LN were surgically excised. LN cells were cultured in 24 well plates at the density of 5×10^6 in complete medium in the absence or in the presence of recombinant murine IL-7 (200 ng/ml), IL-2 (20 ng/ml), IL-6 (45 ng/ml), or IL-15 (100 ng/ml) (all from Peprotech). In parallel cultures, cells were in vitro stimulated with the LACK-derived MHC II-restricted peptide (5 (25)) and 5×10^6 irradiated syngeneic splenocytes. As a control similar cultures were set up from syngeneic naïve mice. […]
as §1

[6] = system: AH-1-specific CD8+ T cells; assay: Cytokine-driven culture of tumor-draining LN, AH-1-specific intracellular cytokine release; assay type: cell-based, BALB/c mice; settings: 7 days culture without Ag re-stimulation; undetectable ex vivo
Procedure: FIG. 10. IL-7 favors the accumulation of tumor-specific memory CD8^+ T cells otherwise undetectable ex vivo. A) BALB/c mice (5 mice per group) were challenged with 3×10^5 TS/A-LACK tumor cells and sacrificed 21 days later. Cells from pools of tumor draining LN (A-C) were analyzed ex vivo (A) and after 7 days in culture in the absence or in the presence of IL-7, IL-2, IL-15, IL-6 (B-C). A) Representative dot plots depict IL-2 and IFN-γ production by KJ1.26^− CD8^+ T cells. The frequency (A, B) and total number (C) of AH-1-specific cytokine-producing KJ1.26^− CD8^+ T cells is reported.
as §2, with “recovered. In the experiments of dendritic cell (DC) vaccination, mice were sacrificed fourteen days after DC administration and the axillary, brachial and inguinal LN were surgically excised.” for “recovered.”
as §1

CC(C)(C)n1nc(-c2ccc(Cl)cc2)c2c(N)ncnc21 [PP2]
effect on IL-7-driven accumulation of fast-dividing CFSEdim CD4+ T cells and LACK-specific cells [1]: only partially inhibited

Oc1ccc(-c2nc(-c3ccncc3)c(-c3ccc(F)cc3)[nH]2)cc1 [SB202190]
effect on Ag-driven T cell proliferation [2]: failed to inhibit
effect on IL-7-driven accumulation of fast-dividing CFSEdim CD4+ T cells and LACK-specific cells [1]: only partially inhibited

IL-6: recombinant IL-6 used as negative control cytokine
TO-PRO-3+ dead cells [3]: 73%
CD4+ T cells expressing optimal (high) Bcl-2 levels [4]: 10.5%
in vitro proliferation of CD4+ T cells and accumulation of LACK-specific CD4+ T cells [5]: failed to support
frequency and total number of AH-1-specific CD8+ T cells [6]: not increased
